Results reported in PMC4636954 (Journal of ethnopharmacology, 2015).
Read-outs that look alike come from different tables or passages of the source.

Columns and labels:
δ opioid receptor [1] = molecular target: T1, δ opioid receptor (Homo sapiens, UniProt P41143); experiment: δ opioid competitive radioligand binding; conditions: for Opioid receptor displacement (%) δ: Tested at 10 µM
κ opioid receptor = κ opioid receptor (Homo sapiens, UniProt P41145); experiment: κ opioid competitive radioligand binding; conditions: for Opioid receptor displacement (%) κ: Tested at 10 µM
μ opioid receptor [2] = molecular target: T2, μ opioid receptor (Homo sapiens, UniProt P35372); experiment: μ opioid competitive radioligand binding; conditions: for Opioid receptor displacement (%) μ: Tested at 10 µM
[3] = test system: Adult male Swiss Webster mice; experiment: Mouse tetrad assay; conditions: for Catalepsy Latency / Hotplate Latency (% MPE) / Tail-Flick Latency (% MPE) / Rectal temperature (°C): 30 min post-injection; for Rectal temperature (°C): change in core body temperature
δ opioid receptor [4] = molecular target: T1, δ opioid receptor; experiment: In vitro GTPγS functional assay, δ-opioid; type: biochemical
μ opioid receptor [5] = molecular target: T2, μ opioid receptor; experiment: In vitro GTPγS functional assay, μ-opioid; type: biochemical
[6] = ip, dose not stated or 'lower doses' (10–100 mg/kg tested)

`COc1cc2c(cc1O)C(Cc1ccc(O)cc1)NCC2` (stereo not shown) [Compound 7, coclaurine] was tested, and the Ki (δ opioid receptor [1]) was 21.1 ± 2 µM, the Ki (κ opioid receptor) was 2.2 ± 0.2 µM and the Ki (μ opioid receptor [2]) was 5 ± 0.7 µM. For the same compound, the “Catalepsy Latency” value ([3]; 10 mg/kg ip) was 1.25 ± 0.25 s, the “Hotplate Latency (% MPE)” value ([3]; 10 mg/kg ip) was 10.15 ± 4.45 % MPE and the “Tail-Flick Latency (% MPE)” value ([3]; 10 mg/kg ip) was 16.57 ± 7.23 % MPE. For the same compound, the “Rectal temperature (°C)” value ([3]; 10 mg/kg ip) was 0.17 ± 0.08 °C, the “Catalepsy Latency” value ([3]; 30 mg/kg ip) was 2.37 ± 0.59 s and the “Hotplate Latency (% MPE)” value ([3]; 30 mg/kg ip) was 5.46 ± 5.05 % MPE. For the same compound, the “Tail-Flick Latency (% MPE)” value ([3]; 30 mg/kg ip) was 1.43 ± 6.95 % MPE, the “Rectal temperature (°C)” value ([3]; 30 mg/kg ip) was 0.1 ± 0.15 °C and the “Catalepsy Latency” value ([3]; 75 mg/kg ip) was 1.75 ± 0.41 s. The “Hotplate Latency (% MPE)” value ([3]; 75 mg/kg ip) was 15.49 ± 3.57 % MPE, the “Tail-Flick Latency (% MPE)” value ([3]; 75 mg/kg ip) was 13.95 ± 5.01 % MPE and the “Rectal temperature (°C)” value ([3]; 75 mg/kg ip) was −0.39 ± 0.05 °C. The “Catalepsy Latency” value ([3]; 100 mg/kg ip) was 1.25 ± 0.25 s, the “Hotplate Latency (% MPE)” value ([3]; 100 mg/kg ip) was 6.08 ± 1.9 % MPE and the “Tail-Flick Latency (% MPE)” value ([3]; 100 mg/kg ip) was 10.07 ± 3.31 % MPE. The “Rectal temperature (°C)” value ([3]; 100 mg/kg ip) was −0.58 ± 0.23 °C and the “Behavioral effects in tetrad assay (in words)” value (from here on “Behavioral effects”) [3, 6] was “did not influence any significant behavioral effects with the exception of weak locomotor activity”.
For `COc1ccc(CC2c3cc(OC)c(OC)cc3CCN2C)cc1` (stereo not shown) [Compound 13, 4´,7-di-O-methylarmepavine], the “Opioid receptor displacement (%) δ” value (δ opioid receptor [1]) was “did not show any significant displacements”, the “Opioid receptor displacement (%) κ” value (κ opioid receptor) was “did not show any significant displacements” and the “Opioid receptor displacement (%) μ” value (μ opioid receptor [2]) was “did not show any significant displacements”.
In the case of `COc1ccc(C[C@@H]2c3cc(OC)c(OC)cc3CCN2C)cc1` [Compound 12, 4´-O-methylarmepavine], the “Opioid receptor displacement (%) δ” value (δ opioid receptor [1]) is reported as “did not show any significant displacements”, the “Opioid receptor displacement (%) κ” value (κ opioid receptor) is reported as “did not show any significant displacements” and the “Opioid receptor displacement (%) μ” value (μ opioid receptor [2]) is reported as “did not show any significant displacements”.
`COc1ccc(C[C@@H]2c3cc(Oc4cc(C[C@@H]5c6cc(OC)c(OC)cc6CCN5C)ccc4O)c(OC)cc3CCN2C)cc1` [Compound 10, neferine] was tested, and the Ki (δ opioid receptor [1]) was 0.7 ± 0.1 µM, the Ki (κ opioid receptor) was 3.3 ± 0.4 µM and the Ki (μ opioid receptor [2]) was 1.8 ± 0.2 µM. The EC50 (δ opioid receptor [4]) was 7.9 ± 2.1 µM, the EC50 (μ opioid receptor [5]) was greater than 21 µM and the “Functional character at μ opioid receptor by GTPγS assay” value (μ opioid receptor [5]; in words) was “weak μ partial agonist”.
`Oc1ccc(CC2NCCc3cc(O)c(O)cc32)cc1` (racemic) [Compound 11, (±)-higenamine] was tested, and the “Opioid receptor displacement (%) δ” value (δ opioid receptor [1]) was “did not show any significant displacements”, the “Opioid receptor displacement (%) κ” value (κ opioid receptor) was “did not show any significant displacements” and the “Opioid receptor displacement (%) μ” value (μ opioid receptor [2]) was “did not show any significant displacements”.
`COc1cc2c(cc1O)[C@@H](Cc1ccc(O)cc1)N(C)CC2` [Compound 6, N-methylcoclaurine] gave a Ki (δ opioid receptor [1]; read-out: δ Ki (µM) ± SEM) of 20.1 ± 3.1 µM, a Ki (κ opioid receptor; read-out: κ Ki (µM) ± SEM) of 0.9 ± 0.1 µM and a Ki (μ opioid receptor [2]; read-out: μ Ki (µM) ± SEM) of 4 ± 0.5 µM.
O-methylcoclaurine [Compound 5] gave a Ki (δ opioid receptor [1]; read-out: δ Ki (µM) ± SEM) of 22.6 ± 3.9 µM, a Ki (κ opioid receptor; read-out: κ Ki (µM) ± SEM) of 3.5 ± 0.3 µM and a Ki (μ opioid receptor [2]; read-out: μ Ki (µM) ± SEM) of 2 ± 0.3 µM.
`COc1cc2c(cc1OC)C(Cc1ccc(O)cc1)N(C)CC2` (stereo not shown) [Compound 4, armepavine] was tested, and the Ki (δ opioid receptor [1]; read-out: δ Ki (µM) ± SEM) was 23.8 ± 3.7 µM, the Ki (κ opioid receptor; read-out: κ Ki (µM) ± SEM) was 13 ± 1.4 µM and the Ki (μ opioid receptor [2]; read-out: μ Ki (µM) ± SEM) was 2.7 ± 0.8 µM.
`CCCCCCCCCCCCCCCC(=O)O` [Palmitic acid (PA), palmitic acid] gave a Ki (δ opioid receptor [1]) greater than 21.1 µM.
In the case of `COc1cc2c3c(c1OC)-c1ccccc1C[C@H]3N(C)CC2` [Compound 1, nuciferine], the “Catalepsy Latency” value ([3]; 10 mg/kg ip) is reported as 3.875 ± 2.32 s, the “Hotplate Latency (% MPE)” value ([3]; 10 mg/kg ip) is reported as 6.99 ± 2.61 % MPE and the “Tail-Flick Latency (% MPE)” value ([3]; 10 mg/kg ip) is reported as 11.69 ± 6.074 % MPE. The “Rectal temperature (°C)” value ([3]; 10 mg/kg ip) was −0.49 ± 0.31 °C, the “Catalepsy Latency” value ([3]; 30 mg/kg ip) was 1.750 ± 0.62 s and the “Hotplate Latency (% MPE)” value ([3]; 30 mg/kg ip) was 3.69 ± 3.01 % MPE. The “Tail-Flick Latency (% MPE)” value ([3]; 30 mg/kg ip) was 18.43 ± 10.50 % MPE, the “Rectal temperature (°C)” value ([3]; 30 mg/kg ip) was −0.91 ± 0.31 °C and the “Catalepsy Latency” value ([3]; 75 mg/kg ip) was 3.500 ± 1.07 s. For the same compound, the “Hotplate Latency (% MPE)” value ([3]; 75 mg/kg ip) was 0.68 ± 2.73 % MPE, the “Tail-Flick Latency (% MPE)” value ([3]; 75 mg/kg ip) was 19.45 ± 6.16 % MPE and the “Rectal temperature (°C)” value ([3]; 75 mg/kg ip) was −1.68 ± 0.38 °C. The “Catalepsy Latency” value ([3]; 100 mg/kg ip) was 1.500 ± 0.27 s, the “Hotplate Latency (% MPE)” value ([3]; 100 mg/kg ip) was 21.78 ± 7.16 % MPE and the “Tail-Flick Latency (% MPE)” value ([3]; 100 mg/kg ip) was 14.14 ± 15.52 % MPE. The “Rectal temperature (°C)” value ([3]; 100 mg/kg ip) was −3.8 ± 0.57 °C, the “Behavioral effects” value ([3]; 100 mg/kg/ip) was “only decreased locomotion and hypothermia at the same dose, but failed to display catalepsy and antinociceptive activity” and the “Behavioral effects” value [3, 6] was “failed to show any cataleptic effect or toxicity in the form of tremors and convulsions”.
`CCCCC/C=C\C/C=C\CCCCCCCC(=O)O` [Linoleic acid (LA), linoleic acid] showed a Ki (δ opioid receptor [1]) of 14.5 ± 2.4 µM.
